From publication PMC9292215 (Clinical Pharmacology and Therapeutics, 2021)

Assay: Plasma pharmacokinetics of BIA 10-2474 and metabolites
Type: in vivo, human
Settings: for Cmax / Tmax / AUC(0-inf) / AUC(0-t) / clearance / half-life / concentration at 10 day / AUC: human, plasma, oral; for AUC(0-t): AUC0–t; for clearance: CL; for AUC: AUC0–τ
[1] = both, 0.25 mg, single dose 0.25 mg
[2] = both, 1.25 mg, single dose 1.25 mg
[3] = both, 2.5 mg, single dose 2.5 mg
[4] = both, 100 mg, single dose 100 mg
[5] = 2.5 mg, 2.5 mg once daily, Day 1
[6] = 2.5 mg, 2.5 mg once daily, Day 10
[7] = 10 mg, 10 mg once daily, Day 10
[8] = 20 mg, 20 mg once daily, Day 10

CN(C(=O)n1cnc(-c2ccc[n+]([O-])c2)c1)C1CCCCC1 [BIA 10-2474, 3-(1-(cyclohexyl(methyl)carbamoyl)-1H-imidazol-4-yl)pyridine 1-oxide]
V/F (2.5 mg once daily, Day 1): 56.1 (18.7) L | Racc (2.5 mg once daily, Day 10): 1.15 | V/F (2.5 mg once daily, Day 10): 57.0 (26.0) L | V/F (5 mg once daily, Day 1): 63.2 (20.4) L | Racc (5 mg once daily, Day 10): 1.31 | V/F (5 mg once daily, Day 10): 65.3 (17.4) L | V/F (10 mg once daily, Day 1): 69.0 (22.8) L | Racc (10 mg once daily, Day 10): 1.59 | V/F (10 mg once daily, Day 10): 61.4 (17.9) L | V/F (20 mg once daily, Day 1): 66.3 (7.34) L | Racc (20 mg once daily, Day 10): 1.57 | V/F (20 mg once daily, Day 10): 64.1 (15.4) L | V/F (50 mg once daily, Day 1): 67.9 (9.78) L | accumulation ratio, based on AUC0–24h (Day 10): < 2 | Overall fold increase in AUC0–τ (MAD Day 1): 19.6 | Overall fold increase in Cmax (MAD Day 1): 14.5 | Fold increase in AUC0–τ (MAD Day 1, 2.5 to 5 mg): 1.8 | Fold increase in Cmax (MAD Day 1, 2.5 to 5 mg): 1.7 | Fold increase in AUC0–τ (MAD Day 1, 5 to 10 mg): 2.0 | Fold increase in Cmax (MAD Day 1, 5 to 10 mg): 1.9 | Fold increase in AUC0–τ (MAD Day 1, 10 to 20 mg): 2.1 | Fold increase in Cmax (MAD Day 1, 10 to 20 mg): 2.0 | Fold increase in AUC0–τ (MAD Day 1, 20 to 50 mg): 2.6 | Fold increase in Cmax (MAD Day 1, 20 to 50 mg): 2.3 | Overall fold increase in AUC0–τ (MAD Day 10): 8.84 | Overall fold increase in Cmax (MAD Day 10): 7.53 | Fold increase in AUC0–τ (MAD Day 10, 2.5 to 5 mg): 1.7 | Fold increase in Cmax (MAD Day 10, 2.5 to 5 mg): 1.6 | Fold increase in AUC0–τ (MAD Day 10, 5 to 10 mg): 2.4 | Fold increase in Cmax (MAD Day 10, 5 to 10 mg): 2.2 | Fold increase in AUC0–τ (MAD Day 10, 10 to 20 mg): 2.1 | Fold increase in Cmax (MAD Day 10, 10 to 20 mg): 2.1 | Fold increase in Cmax (SAD, 1.25 to 2.5 mg): 1.9 | Fold increase in AUC0–t (SAD, 2.5 to 5 mg): 2.4 | Fold increase in Cmax (SAD, 2.5 to 5 mg): 2.7 | Fold increase in AUC0–t (SAD, 5 to 10 mg): 2.1 | Fold increase in Cmax (SAD, 5 to 10 mg): 1.7 | Fold increase in AUC0–t (SAD, 10 to 20 mg): 2.8 | Fold increase in Cmax (SAD, 10 to 20 mg): 2.1 | Fold increase in AUC0–t (SAD, 20 to 40 mg): 2.2 | Fold increase in Cmax (SAD, 20 to 40 mg): 2.6 | Fold increase in AUC0–t (SAD, 40 to 100 mg): 2.6 | Fold increase in Cmax (SAD, 40 to 100 mg): 2.2 | Overall fold increase in AUC0–t (SAD, over the dosage range): 19.6 | Cmax [1]: 3.1 ng/mL | Tmax [1]: 2 h | AUC(0-inf) (both, 1.25 mg): 142 ng·h/mL | AUC(0-t) [2]: 98 ng·h/mL | clearance [2]: 155 mL/min | Cmax [2]: 16.2 ng/mL | half-life (both, 1.25 mg, t1/2, single dose 1.25 mg): 392 min | Tmax [2]: 1.5 h | AUC(0-inf) (both, 2.5 mg): 338 ng·h/mL | AUC(0-t) [3]: 289 ng·h/mL | clearance [3]: 131 mL/min | Cmax [3]: 31.2 ng/mL | half-life (both, 2.5 mg, t1/2, single dose 2.5 mg): 422 min | Tmax [3]: 1.5 h | AUC(0-t) (both, 5 mg, single dose 5 mg): 693 ng·h/mL | Cmax (both, 5 mg, single dose 5 mg): 85.4 ng/mL | Tmax (both, 5 mg, single dose 5 mg): 2 h | clearance (both, 40 mg, single dose 40 mg): 116 mL/min | half-life (both, 40 mg, t1/2, single dose 40 mg): 470 min | Tmax (both, 40 mg, single dose 40 mg): 2 h | AUC(0-inf) (both, 100 mg): 23200 ng·h/mL | AUC(0-t) [4]: 23000 ng·h/mL | clearance [4]: 75.2 mL/min | Cmax [4]: 1770 ng/mL | half-life (both, 100 mg, t1/2, single dose 100 mg): 548 min | Tmax [4]: 2 h | half-life (both, drug half-life in plasma): 360 to 600 min | half-life (both, mean terminal elimination half-life, Day 10): 480 to 600 min | concentration at 10 day (2.5 mg): 6.24 ng/mL | AUC(0-t) [5]: 384 ng·h/mL | AUC [5]: 397 ng·h/mL | AUC [6]: 526 ng·h/mL | clearance [5]: 98.3 mL/min | clearance [6]: 81.5 mL/min | Cmax [5]: 46 ng/mL | Cmax [6]: 52.6 ng/mL | half-life (2.5 mg, t1/2, 2.5 mg once daily, Day 1): 404 min | half-life (2.5 mg, t1/2, 2.5 mg once daily, Day 10): 482 min | Tmax [5]: 2 h | Tmax [6]: 2 h | AUC(0-inf) (5 mg): 752 ng·h/mL | concentration at 10 day (5 mg): 10.8 ng/mL | AUC(0-t) (5 mg, 5 mg once daily, Day 1): 695 ng·h/mL | AUC (5 mg, 5 mg once daily, Day 1): 708 ng·h/mL | AUC (5 mg, 5 mg once daily, Day 10): 909 ng·h/mL | clearance (5 mg, 5 mg once daily, Day 1): 125 mL/min | clearance (5 mg, 5 mg once daily, Day 10): 101 mL/min | clearance (5 mg, single dose 5 mg): 114 mL/min | Cmax (5 mg, 5 mg once daily, Day 1): 76.2 ng/mL | Cmax (5 mg, 5 mg once daily, Day 10): 85.7 ng/mL | half-life (5 mg, t1/2, 5 mg once daily, Day 1): 384 min | half-life (5 mg, t1/2, 5 mg once daily, Day 10): 472 min | half-life (5 mg, t1/2, single dose 5 mg): 394 min | Tmax (5 mg, 5 mg once daily, Day 1): 2 h | Tmax (5 mg, 5 mg once daily, Day 10): 2 h | AUC(0-inf) (10 mg): 1610 ng·h/mL | concentration at 10 day (10 mg): 31.9 ng/mL | AUC(0-t) (10 mg, 10 mg once daily, Day 1): 1390 ng·h/mL | AUC(0-t) (10 mg, single dose 10 mg): 1440 ng·h/mL | AUC (10 mg, 10 mg once daily, Day 1): 1390 ng·h/mL | AUC [7]: 2200 ng·h/mL | clearance (10 mg, 10 mg once daily, Day 1): 116 mL/min | clearance [7]: 80.3 mL/min | clearance (10 mg, single dose 10 mg): 112 mL/min | Cmax (10 mg, 10 mg once daily, Day 1): 143 ng/mL | Cmax [7]: 190 ng/mL | Cmax (10 mg, single dose 10 mg): 146 ng/mL | half-life (10 mg, t1/2, 10 mg once daily, Day 1): 427 min | half-life (10 mg, t1/2, 10 mg once daily, Day 10): 545 min | half-life (10 mg, t1/2, single dose 10 mg): 421 min | Tmax (10 mg, 10 mg once daily, Day 1): 2 h | Tmax [7]: 2 h | Tmax (10 mg, single dose 10 mg): 3 h | AUC(0-inf) (20 mg): 4170 ng·h/mL | concentration at 10 day (20 mg): 69.2 ng/mL | AUC(0-t) (20 mg, 20 mg once daily, Day 1): 2980 ng·h/mL | AUC(0-t) (20 mg, single dose 20 mg): 4070 ng·h/mL | AUC (20 mg, 20 mg once daily, Day 1): 2980 ng·h/mL | AUC [8]: 4650 ng·h/mL | clearance (20 mg, 20 mg once daily, Day 1): 100 mL/min | clearance [8]: 72.2 mL/min | clearance (20 mg, single dose 20 mg): 81.2 mL/min | Cmax (20 mg, 20 mg once daily, Day 1): 290 ng/mL | Cmax [8]: 396 ng/mL | Cmax (20 mg, single dose 20 mg): 308 ng/mL | half-life (20 mg, t1/2, 20 mg once daily, Day 1): 464 min | half-life (20 mg, t1/2, 20 mg once daily, Day 10): 612 min | half-life (20 mg, t1/2, single dose 20 mg): 522 min | Tmax (20 mg, 20 mg once daily, Day 1): 1.5 h | Tmax [8]: 2 h | Tmax (20 mg, single dose 20 mg): 2 h | AUC(0-t) (50 mg, 50 mg once daily, Day 1): 7770 ng·h/mL | AUC (50 mg, 50 mg once daily, Day 1): 7770 ng·h/mL | clearance (50 mg, 50 mg once daily, Day 1): 94.7 mL/min | Cmax (50 mg, 50 mg once daily, Day 1): 667 ng/mL | half-life (50 mg, t1/2, 50 mg once daily, Day 1): 520 min | Tmax (50 mg, 50 mg once daily, Day 1): 2 h | time to steady state (once-daily administration, visual inspection of Ctrough): 5 to 6 days | V/F (single dose 1.25 mg): 87.8 (30.4) L | V/F (single dose 2.5 mg): 79.0 (29.0) L | V/F (single dose 5 mg): 64.6 (23.0) L | V/F (single dose 10 mg): 66.9 (29.8) L | V/F (single dose 20 mg): 61.3 (19.0) L | V/F (single dose 40 mg): 73.2 (28.3) L | V/F (single dose 100 mg): 57.0 (16.3) L | decrease of exposure in the presence of food (single oral 40 mg): ~ 15%
